Data taken from publication PMC8772772, “Enantioselective Synthesis and Pharmacological Evaluation of Aza-CGP37157–Lipoic Acid Hybrids for the Treatment of Alzheimer’s Disease” (Antioxidants, 2022).
Values joined by “and” are separate entries in the source; they are usually repeats but may differ in a detail not shown here. Equal values may be shown once.

Key:
NRF2 = NRF2 induction, luciferase expression in AREc32 cell line; format: cell-based; settings: for CD (concentration required to double the specific luciferase activity): AREc32 cells, 0.3, 3, 10 and 30 μM (LA: 0.1–0.6 mM), mean ± SEM
Description: AREc32 cell line was kindly shared by Professor Roland Wolf (University of Dundee, UK). AREc32 cells were maintained in DMEM/glutamax/high glucose (Gibco, 61965-06, Madrid, Spain), supplemented with 1% penicillin–streptomycin (10,000 units) (SigmaAldrich, P4333, Madrid, Spain), geneticin (0.8 mg/mL) (Gibco, 11811-031) and 10% FBS (Gibco, 10270106), at 37 °C in a 5% CO2 air atmosphere. Cells were used from passage 4 to 18, and mycoplasma contamination was tested every 4 weeks. AREc32 cells were seeded in 96-well white plates (2 × 10^4 cells/well) for 24 h. Thereafter, cells were treated with each compound (0.3, 3, 10 and 30 µM) in duplicate for 24 h. Non-treated cells were included as basal luciferase expression and tert-butylhydroquinone (TBHQ, 10 μM) as positive control in each plate. Luciferase expression was evaluated by using the Luciferase Assay System (Promega, E1483, Madrid, Spain) by luminescence in an Orion II microplate luminometer (Berthold, Germany). Luciferase activity increase was normalized to basal conditions considered as 1. CD values (concentration required to double the luciferase activity) were calculated from dose–response curves of luciferase fold induction vs. compound concentration, fitted by non-linear regression and data interpolated to value 2.
To evaluate the influence of both stereogenic centers in the NRF2 induction capacity of aza-CGP37157-LA hybrids, we used the AREc32 cell line model by analyzing luciferase expression upon treatment with NRF2 inducers. AREc32 cells were exposed to increasing concentrations of tested compounds 7a–d (0.3, […], 10 and 30 μM) during 24 h; thereafter, luciferase expression was evaluated by luminescent assay to calculate the corresponding CD value (concentration to double luciferase expression). […] TBHQ was included as a positive control, and CGP37157, S- and R-LA, rac-3a and (rac,R)-3b and precursors derivatives (R-6 and S-6) were included for comparative purposes. […] Once R-LA is reduced, it might activate the phase II antioxidant response by acting as pro-oxidant over key Cys residues at KEAP1 to generate the corresponding lipoyl-cystinyl disulphide.

[1] = Cytotoxicity in SH-SY5Y cell line (MTT); format: cell-based; settings: human; SH-SY5Y, 10, 30 and 100 μM, 24 h, MTT; read-out: CC50
Description: SH-SY5Y human neuroblastoma cells were seeded in 96-well clear multi-well plates (6 × 10^4 cells/well). Cells were treated with increasing concentrations of compounds (10, 30 and 100 μM) for 24 h. Thereafter, viability was assessed by the MTT method. Cytotoxic concentration to observe 50% mortality (CC50) values for compounds were interpolated from dose–response curves represented as percentage of cell death vs. concentration of compound, fitted by non-linear regression and data interpolated to value 50.
The tetrazolium ring of MTT can be cleaved by active dehydrogenases to produce a formazan precipitate. At the end of the experiments, MTT (SigmaAldrich, M2003) stock solution was added to each well to achieve a final concentration of 0.5 mg/mL. Cells were incubated for 2 h. Thereafter, culture media was removed, and DMSO was added to each well to dissolve the formazan precipitate. Finally, absorbance was measured in a microplate reader (SPECTROstar nano, BMG Labtech) at 570 nm. Absorbance obtained in basal conditions was considered as 100% cell viability.
In order to evaluate the potential pharmacological profile of new compounds, we first tested the potential neurotoxicity in the neuroblastoma SHSY5Y cell line. Toxicity was evaluated at increasing concentrations (10, 30 and 100 μM), and toxicity was measured as MTT reduction capability. CC50 values were calculated by non-linear regression of curves % survival vs. concentration (Supplementary Materials Figure S2). CGP37157 and previously studied racemic derivatives rac-3a and (rac,R)-3b were included as reference compounds. As previously described, LA is a non-neurotoxic compound at the concentrations texted.

[2] = DPPH reduction assay, antioxidant capacity; settings: DPPH 100 µM, 30 min, mean ± SEM; for DPPH Scavenging at 100 µM, %: compound 100 µM; for DPPH Scavenging at 1mM, %: compound 1 mM
Description: Antioxidant capacity was evaluated by using described procedure slightly modified. Compounds (0.1 and 1 mM, final concentration) were diluted in assay media (EtOH/H2O, 70:30) and mixed with 100 μL of DPPH (SigmaAldrich, D9132, Madrid, Spain) solution (100 μM final concentration) in a clear 96-multiwell plate. Final solution was kept in dark for 30 min, and absorbance of DPPH was measured in a SpectroStar Nano plate-reader (BMG Labtech, Ortenberg, Germany) in duplicate at […]. All experiments included a blank (assay media), control (DPPH 100 μM) and a positive control (ascorbic acid, 100 μM). Data were evaluated as % absorbance (Abs) reduction of control after subtracting blank absorbance. % DPPH reduction = [100 − ((Abssample − Absblank) × 100]/Abscontrol
Initially, we evaluated the free-radical-scavenging capacity of derivatives 7a–d in the DPPH assay, based on the capacity of the tested derivatives to react with the 2,2-diphenyl-1-picrylhydracil radical to generate a non-radical derivate. Hybrid derivatives 7a–d were evaluated at two different concentrations (0.1 and 1 mM), considering the activities of previously reported racemic derivatives. […] Ascorbic acid was used as a positive control, and CGP37157, rac-3a and (rac,R)-3b were included as references. […] Those results are similar to those obtained for racemic mixtures 3a and 3b and a mixture of (S,R)-7b and (R,R)-7d obtained from rac-3 and R-lipoic acid.

SMILES: O=C1CN(CCOC(=O)CCCC[C@@H]2CCSS2)[C@@H](c2ccccc2Cl)c2cc(Cl)ccc2N1 [(R,R)-7d, 2-((R)-7-Chloro-5-(2-chlorophenyl)-2-oxo-1,2,3,5-tetrahydro-4H-benzo[e][1,4]diazepin-4-yl)ethyl 5-((R)-1,2-dithiolan-3-yl)pentanoate]
- luciferase activity increase at 30 μM (NRF2; AREc32 cells, 24 h, vs basal): significantly increase luciferase activity
- CD (concentration required to double the specific luciferase activity) (NRF2; 24 h): over 30 μM
- CC50 at 24 h [1]: > 100 µM
- DPPH Scavenging at 100 µM, % [2]: 8.66 ± 3.0%
- DPPH Scavenging at 1mM, % [2]: 23.3 ± 3.5%

SMILES: O=C1CN(CCOC(=O)CCCC[C@@H]2CCSS2)[C@H](c2ccccc2Cl)c2cc(Cl)ccc2N1 [(R,S)-7c, 2-((S)-7-Chloro-5-(2-chlorophenyl)-2-oxo-1,2,3,5-tetrahydro-4H-benzo[e][1,4]diazepin-4-yl)ethyl 5-((R)-1,2-dithiolan-3-yl)pentanoate]
- luciferase activity increase at 10 μM (NRF2; AREc32 cells, 10 μM, 24 h, vs basal): significantly increase luciferase activity
- luciferase activity increase at 30 μM (NRF2; AREc32 cells, 24 h, vs basal): significantly increase luciferase activity
- CD (concentration required to double the specific luciferase activity) (NRF2; 24 h): over 30 μM
- CC50 at 24 h [1]: > 100 µM
- DPPH Scavenging at 100 µM, % [2]: 13.6 ± 3.8%
- DPPH Scavenging at 1mM, % [2]: 35.9% and 35.9 ± 1.9%

SMILES: O=C1CN(CCOC(=O)CCCC[C@H]2CCSS2)[C@@H](c2ccccc2Cl)c2cc(Cl)ccc2N1 [(S,R)-7b, 2-((R)-7-Chloro-5-(2-chlorophenyl)-2-oxo-1,2,3,5-tetrahydro-4H-benzo[e][1,4]diazepin-4-yl)ethyl 5-((S)-1,2-dithiolan-3-yl)pentanoate]
- CD (concentration required to double the specific luciferase activity) (NRF2; 24 h): 11.9 ± 1.3 µM
- NRF2 induction potency relative to (S,S)-7a (NRF2; ratio of CD values): 2.2 fold
- CC50 at 24 h [1]: > 100 µM
- DPPH Scavenging at 100 µM, % [2]: 8.46 ± 3.8%
- DPPH Scavenging at 1mM, % [2]: 32.0 ± 1.7%

SMILES: O=C1CN(CCOC(=O)CCCC[C@H]2CCSS2)[C@H](c2ccccc2Cl)c2cc(Cl)ccc2N1 [(S,S)-7a, 2-((S)-7-Chloro-5-(2-chlorophenyl)-2-oxo-1,2,3,5-tetrahydro-4H-benzo[e][1,4]diazepin-4-yl)ethyl 5-((S)-1,2-dithiolan-3-yl)pentanoate]
- CD (concentration required to double the specific luciferase activity) (NRF2; 24 h): 26.5 ± 1.3 µM
- CC50 at 24 h [1]: > 100 µM
- DPPH Scavenging at 100 µM, % [2]: 10.9 ± 3.5%
- DPPH Scavenging at 1mM, % [2]: 30.3 ± 1.6%
